Measurements reported in the OPERA property sets (Mansouri et al. 2018).

Details: for log10 BCF / log10 biotransformation half-life (days): fish

Compound	melting point [°C]	boiling point [°C]	log10 vapour pressure (mmHg)	also measured
O=c1[nH]c2ccccc2n1C1CCN(CCCC(c2ccc(F)cc2)c2ccc(F)cc2)CC1	216			
Cc1ccc2[nH]c3ccccc3c2c1	208	365		
Cc1ccc2ccc(=O)oc2c1	128			
C=CC(C)C(C)C (centres undefined)		80.8		
CCCCC(C=O)CC (centres undefined)		163	0.255	
c1ccc2c(c1)cc1ccc3cccc4c5ccccc5c2c1c34	162			
CCCCCCCCCCCC(=O)Cl	-17			
CN(C)C(=O)C(c1ccccc1)c1ccccc1	135		-7.52	log10 Koc (L/kg): 2.32
Nc1c(Br)cccc1Br	87.5	263		
CCCC(C1CCCCC1)C1CCCCC1	-10.5	293		
Clc1ccc(-c2cc(Cl)ccc2Cl)c(Cl)c1			-5.07	log10 Henry constant (atm·m³/mol): -3.68; log10 Koa: 8.39
CC(O)COCc1c(Cl)ccc(Cl)c1Cl (centres undefined)			-4	
CCOC(=O)c1sc(N)nc1C(F)(F)F	186			
Nc1ccc(N=Nc2ccc([N+](=O)[O-])cc2)cc1	215		-9.52	
CN(C)S(=O)N(C)C	31	209		
Cc1c(NC(=O)c2cccnc2)c(=O)n(-c2ccccc2)n1C	253			
CC(=O)c1cccs1	10.5	214		
CCCc1ccccc1	-99.5	159	0.534	log10 Henry constant (atm·m³/mol): -1.98; log10 Koa: 4.09; log10 Koc (L/kg): 2.87; log10 biodegradation half-life (days): 0.602; ready biodegradability: readily biodegradable
Cc1ccc2cccc(C)c2c1	-13.9	263		
CCCOC(=O)C(O)C(O)C(=O)OCCC (centres undefined)		303		
Cc1cccc(C(=O)O)c1O	166			ready biodegradability: not readily biodegradable
CC(F)(F)C(F)(F)F		-17.4	3.54	

Compound	melting point [°C]	boiling point [°C]	log10 vapour pressure (mmHg)	also measured
Fc1ccccc1F	-34	94	1.73	ready biodegradability: not readily biodegradable
CC(=O)NO	90.5			
OC1CCCC1	-19	140	0.396	
O=C[C@H](O)[C@H](O)[C@H](O)CO	98.5			
CC(=O)OCCCl		145		
CC(=O)c1ccc(C(C)=O)cc1	112			
CCc1cccc(C)c1	-95.5	161	0.483	log10 biodegradation half-life (days): 0.477
C=C(C)[C@H]1CCC(C)=C[C@@H]1c1c(O)cc(CCCCC)cc1O	67			
CCCCCCCCCCCC(=O)O	43.2	299	-4.8	log10 BCF: 2.4
C#CCO	-51.8	114	1.19	ready biodegradability: readily biodegradable
NS(=O)(=O)c1ccc(S(=O)(=O)CCO)cc1	165			
O=C(Oc1cccc2cccnc12)c1ccccc1	119			ready biodegradability: readily biodegradable
CCOC(=O)C(Cc1ccccc1)C(=O)OCC		300		
C=CC=O	-87.7	52.6	2.44	log10 Henry constant (atm·m³/mol): -3.91; ready biodegradability: not readily biodegradable
Oc1ccc(O)c(-c2ccccc2)c1	102			
CC(C)Nc1ccccc1	-10	203		
CC1(C)CC(O)CC(C)(CN)C1 (centres undefined)	45.5	265		
Cc1ccc(N=Nc2c(O)ccc3ccccc23)c([N+](=O)[O-])c1				ready biodegradability: not readily biodegradable
O=C(O)C1C2CCC(O2)C1C(=O)O (centres undefined)	144		-9.8	log10 Koc (L/kg): 2.09
C=CCBr	-119	70.1		
C=C(C)CCCCCC	-77.8	145		
Cc1cccc(N(C)C)c1		212		

Compound	melting point [°C]	boiling point [°C]	log10 vapour pressure (mmHg)	also measured
C=CCCCCCCCCCC	-35.2	214	-0.797	log10 biotransformation half-life (days): 0.83
CCC(C)OC(=O)CC(C)=O (centres undefined)				ready biodegradability: readily biodegradable
FC(F)C(F)(F)CBr		74		
OC1CCC(Cl)CC1 (centres undefined)	82.5			
CC(O)C(C)Cl (centres undefined)		139		
CC(C)(C)c1cc([N+](=O)[O-])cc([N+](=O)[O-])c1O	126			
CCC(Cl)Cl		88.1	1.83	
Brc1ccc(Oc2ccc(Br)c(Br)c2)cc1Br				log10 BCF: 6.29
Clc1ccc2c(c1)oc1c(Cl)c(Cl)cc(Cl)c12	190			
C=CCC(CC=C)(C(=O)OCC)C(=O)OCC		244		
NS(=O)(=O)c1ccc(SCCO)cc1	112			
CC(C)[C@@H]1CC[C@@H](C)[C@H](O)C1		218		
CCCCCCCCCCCC(=O)OCC(O)C1OCC(O)C1O (centres undefined)				ready biodegradability: readily biodegradable
Clc1ccc(-c2cc(Cl)c(Cl)c(Cl)c2Cl)cc1	98			log10 biotransformation half-life (days): 2.36
CCC(C)NC(C)CC (centres undefined)		135		ready biodegradability: not readily biodegradable
CC(Cl)=CCCl		131		
CNC(=O)Oc1cc(C(C)(C)C)cc(C(C)(C)C)c1	103		-5.7	
FC1(F)C(F)(F)C(F)(Cl)C1(F)Cl (centres undefined)	-24.2	59.5	2.36	
c1ccc2c(c1)ccc1cc3c(ccc4ccccc43)cc12	270	524	-9.02	log10 Koc (L/kg): 6.22; log10 biodegradation half-life (days): 2.62; ready biodegradability: not readily biodegradable; log10 biotransformation half-life (days): 0.21
O=Cc1ccc(Oc2ccccc2)cc1	24.5			
O=C(OC(=O)C(F)(F)F)C(F)(F)F	-65	39.5	1.61	
CCCCCCCCCCCCC/C=C/[C@@H](O)[C@@H](N)CO	67			

Compound	melting point [°C]	boiling point [°C]	log10 vapour pressure (mmHg)	also measured
CCCCCCCCCCCC[N+](C)(C)[O-]	132			ready biodegradability: readily biodegradable
CCNC1=NC(=O)C(c2ccccc2)O1 (centres undefined)	148			
C=COC	-122	5.5	3.12	
CC(C)COC(=O)C(C)Oc1ccc(Oc2ccc(Cl)cc2)cc1 (centres undefined)	39.5			
COc1ccccc1N	6.2	224	-1.1	ready biodegradability: readily biodegradable
C=Cc1cccc([N+](=O)[O-])c1	-10			ready biodegradability: not readily biodegradable
c1ccc2[nH]c(-c3cscn3)nc2c1	300		-8.4	log10 Koc (L/kg): 3.24
ClC1=C(Cl)C2(Cl)C=CC1(Cl)C2(Cl)Cl				log10 BCF: 3.81
CCCCCCCCC(C(=O)O)C(=O)O	116			
Cc1c(N)cccc1N	106	260	-2.61	
O=S(=O)(Cl)c1ccc(Br)cc1	76			
CC(C)(Br)[N+](=O)[O-]		153		
O=C1C=CC(=O)C(c2ccccc2)=C1	114			
NCCO	10.5	171	-0.394	ready biodegradability: readily biodegradable
CCCCCCCCS	-49.2	199	-0.372	
Sc1ncc[nH]1	230			
CC(=O)O[C@H]1[C@H]2O[C@]23[C@@H]2CC[C@]4(O)C[C@@H](O)CC[C@]4(C)[C@H]2CC[C@]3(C)[C@H]1c1ccc(=O)oc1	260			
N#CCCCCl		192		
O=Cc1ccccc1O	-7	197	-0.227	
COC(=O)C1(S(=O)(=O)c2ccc(Cl)cc2)CCC1	76.2			
CCCC(O)CO (centres undefined)	104	206		
